Results on eleven molecules are retold here after patent US10144732B2 (BIOGEN MA INC., priority 2014, dated 2018).

Structures can show the parent of a compound that is named as a salt. Where only a bound is given, the exact number is not on record here.

One test concerns the target T1, Human ATX protein (Homo sapiens, UniProt Q13822).
T1 construct: made in house
Put plainly: ATX biochemical assay (FRET, FS-3 substrate). The note with it: FRET assay, FS-3 2 μM, ATX 1.0 μg/mL, 30 minutes preincubation, 2 hours reaction at room temperature; read-out: IC50. In short, it runs like this:
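FRET read-out: cleavage of FS-3 (2 μM final) unquenches fluorescein, measured at 485/538 nm after 2 h at room temperature. Before substrate addition, in-house-expressed human autotaxin (1.0 μg/mL) sat with compound for 30 min in pH 7.4 Tris/NaCl/KCl/CaCl2/MgCl2 buffer containing fatty acid free-BSA at 1 mg/mL.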
For `CCCC1CC(CC(=O)N2CCc3c(C(F)(F)F)nn(Cc4ccc(F)cc4)c3C2)CCN1C(=O)OC(C)(C)C` (centres unmarked) [Example 8-9, tert-Butyl 4-(2-(1-(4-fluorobenzyl)-3-(trifluoromethyl)-4,5-dihydro-1H-pyrazolo[3,4-c]pyridin-6(7H)-yl)-2-oxoethyl)-2-propylpiperidine-1-carboxylate], the 50% inhibitory concentration (IC50) is no more than 100 nM.

Take `CC(C)(C)OC(=O)NC12CCC(C(=O)N3CCc4c(C(F)(F)F)nn(Cc5ccc(F)cc5)c4C3)(CC1)CC2` [Example 8-10, tert-Butyl 4-(1-(4-fluorobenzyl)-3-(trifluoromethyl)-4,5,6,7-tetrahydro-1H-pyrazolo[3,4-c]pyridine-6-carbonyl)bicyclo[2.2.2]octan-1-ylcarbamate]: the IC50 was no more than 100 nM.

For `O=C(CC1CNC1)N1CCc2c(C(F)(F)F)nn(Cc3ccc(Cl)cc3F)c2C1` [Example 9-3, 2-(Azetidin-3-yl)-1-(1-(4-chloro-2-fluorobenzyl)-3-(trifluoromethyl)-4,5-dihydro-1H-pyrazolo[3,4-c]pyridin-6(7H)-yl)ethanone TFA salt], the half-inhibitory concentration (IC50) is no more than 100 nM.

`O=C(CC1CCCNC1)N1CCc2c(C(F)(F)F)nn(Cc3ccc(F)cc3)c2C1` (centres unmarked) [Example 9-4, 1-(1-(4-Fluorobenzyl)-3-(trifluoromethyl)-4,5-dihydro-1H-pyrazolo[3,4-c]pyridin-6(7H)-yl)-2-(piperidin-3-yl)ethanone HCl salt]: the IC50 was no more than 100 nM.

Consider `CC1CC(CC(=O)N2CCc3c(C(F)(F)F)nn(Cc4ccc(Cl)cc4F)c3C2)CCN1` (centres unmarked) [Example 9-5, 1-(1-(4-Chloro-2-fluorobenzyl)-3-(trifluoromethyl)-4,5-dihydro-1H-pyrazolo[3,4-c]pyridin-6(7H)-yl)-2-(2-methylpiperidin-4-yl)ethanone TFA salt], for which the IC50 is no more than 100 nM.

For `CC1(C)CC(CC(=O)N2CCc3c(C(F)(F)F)nn(Cc4ccc(Cl)cc4F)c3C2)CCN1` (centres unmarked) [Example 9-6, 1-(1-(4-Chloro-2-fluorobenzyl)-3-(trifluoromethyl)-4,5-dihydro-1H-pyrazolo[3,4-c]pyridin-6(7H)-yl)-2-(2,2-dimethylpiperidin-4-yl)ethanone TFA salt], the 50% inhibitory concentration (IC50) is no more than 100 nM.

Turning to `O=C(CC1CCNC(C(F)(F)F)C1)N1CCc2c(C(F)(F)F)nn(Cc3ccc(Cl)cc3F)c2C1` (centres unmarked) [Example 9-7, 1-(1-(4-Chloro-2-fluorobenzyl)-3-(trifluoromethyl)-4,5-dihydro-1H-pyrazolo[3,4-c]pyridin-6(7H)-yl)-2-(2-(trifluoromethyl)piperidin-4-yl)ethanone TFA salt], the 50% inhibitory concentration (IC50) is no more than 100 nM.

On to `O=C(O)[C@@H]1CC(CC(=O)N2CCc3c(C(F)(F)F)nn(Cc4ccc(Cl)cc4F)c3C2)CN1` (some centres unmarked) [Example 9-8, (2s)-4-(2-(1-(4-Chloro-2-fluorobenzyl)-3-(trifluoromethyl)-4,5-dihydro-1H-pyrazolo[3,4-c]pyridin-6(7H)-yl)-2-oxoethyl)pyrrolidine-2-carboxylic acid TFA salt], for which the IC50 was no more than 100 nM.

For the molecule `NC12CCC(C(=O)N3CCc4c(C(F)(F)F)nn(Cc5ccc(F)cc5)c4C3)(CC1)CC2` [Example 9-9, (4-Aminobicyclo[2.2.2]octan-1-yl)(1-(4-fluorobenzyl)-3-(trifluoromethyl)-4,5-dihydro-1H-pyrazolo[3,4-c]pyridin-6(7H)-yl)methanone TFA salt], the half-inhibitory concentration (IC50) lay within 100 to 250 nM.

In the case of `NC12CCC(CC(=O)N3CCc4c(C(F)(F)F)nn(Cc5ccc(F)cc5)c4C3)(CC1)CC2` [Example 9-10, 2-(4-Aminobicyclo[2.2.2]octan-1-yl)-1-(1-(4-fluorobenzyl)-3-(trifluoromethyl)-4,5-dihydro-1H-pyrazolo[3,4-c]pyridin-6(7H)-yl)ethanone TFA salt], the 50% inhibitory concentration (IC50) was 100 to 250 nM.

The same test, now with this note: IC50, FRET assay, FS-3 2 μM, ATX 1.0 μg/mL, 30 minutes preincubation, 2 hours reaction at room temperature.
`O=C(CC1CC2CCC(C1)N2)N1CCc2c(C(F)(F)F)nn(Cc3ccc(Cl)cc3F)c2C1` (centres unmarked) [Example 9-1, 2-(8-Aza-bicyclo[3.2.1]octan-3-yl)-1-(1-(4-chloro-2-fluorobenzyl)-3-(trifluoromethyl)-4,5-dihydro-1H-pyrazolo[3,4-c]pyridin-6(7H)-yl)ethanone TFA salt] displayed a concentration for half-maximal inhibition (IC50) of no more than 100 nM.

By IC50 is commonly meant the concentration at which inhibition is half-maximal.
